Measured values as given in patent US20240415845A1, “Compositions of Iboga Alkaloids and Methods of Treatment” (priority 2022, published 2024).

System: special operations veterans with combat and/or blast exposure
Assay: Montgomery-Asberg Depression Rating Scale (MADRS), incl. suicidal ideation item Q10
Type: in vivo, human
Details: for Suicidal Ideation (MADRS Q10), % Reporting: only participants with non-zero suicidal ideation at baseline (N 14), baseline 100%
Source text: The pre-specified primary outcome was change in the World Health Organization Disability Assessment Schedule 2.0 (WHODAS) (Gold L. H. et al., J. Am. Acad. Psychiatry Law 42, 9 (2014)) from baseline to post-treatment, with change from baseline to the one-month follow-up a secondary outcome. Additional pre-specified secondary outcomes included post-treatment changes on the Clinician Administered PTSD Scale (CAPS-5; Weathers, F. W. et al., Psychol. Assess., 30, 383-395 (2018)), Montgomery-Åsberg Depression Rating Scale (MADRS; Montgomery, S. A., Br. J. Psychiatry J. Ment. Sci., 134, 382-389 (1979)) and the Hamilton-Anxiety Rating Scale (HAM-A; Bruss, G. S., et al., Psychiatry Res., 53, 191-202 (1994)). […] An additional dose of magnesium was administered approximately 12 hours later. To assess the significance of post-treatment changes, linear mixed effects (LME) models were used for each outcome measure. False Discovery Rate (FDR; Benjamini, Y. et al., J. R. Stat. Soc. Ser. B Methodol., 57, 289-300 (1995)) was applied to correct for multiple comparisons.
To further assess changes in comorbid psychiatric symptoms identified by the models, mean percent reduction, response rate, and remission rate according to the CAPS-5, MADRS and HAM-A (Table 1) were calculated. Response on the CAPS-5, MADRS, and HAM-A was defined as a reduction of at least 10 points (Mitchell, J. M. et al., Nat. Med. 27, 1025-1033(2021)), 50% (Leucht, S. et al., J. Affect. Disord. 210, 287-293 (2017)), and 50% (McIntyre, A. et al., Depress. Anxiety 24, 487-494 (2007)), respectively; remission as loss of diagnosis and a total score below 12 (Mitchell, J. M. et al. supra), <8 (Leucht, S. et al. supra), and <8(McIntyre, A. et al., supra), respectively.
With subjects in the fasting state, an intravenous infusion of 1 gram of magnesium sulfate was administered 1-2 hours prior to treatment. […] Medical staff (MD, RN, or EMT) were onsite at a ratio of at least 1 staff per 2 patients throughout treatment for monitoring and management, but no specific coaching or psychological support was provided during treatment.
Clinician administered scales included CAPS-5 (Clinician-administered PTSD Scale for DSM-5), which is a gold standard assessment of PTSD symptom severity; MADRS (Montgomery-Asberg Depression Rating Scale), a measure for depressive symptom severity: and Hamilton-Anxiety Rating Scale (HAM-A) (Shear, M. K. et al., Depress. Anxiety 13, 166-178 (2001)) a measure for anxiety symptom severity: SCID-5 (Structured Clinical Interview for DSM-5) Overview for a historical and environmental context of symptom presentation: MINI DSM-5 (Mini International Neuropsychiatric Interview from DSM-5) for a structured psychodiagnostics assessment: BAT-L (Boston Assessment of TBI-Lifetime) for a lifetime history of TBI and blast exposure: and Ohio State University TBI Identification Method (Short Form) for a lifetime history of TBI. MADRS testing provides an indication of depressive symptoms, CAPS-5 provides an indication of PTSD and SIGH-A provides an indication of anxiety. Collectively these overlap to provide indication of mood, concentration, sleep and tension.
The MADRS is a clinician-administered 10-item scale assessing the severity of depression symptoms. Items are rated on a scale of 0 (no abnormality) to 6 (severe) (Montgomery, S. A. et al., Br. J. Psychiatry J. Ment. Sci. 134, 382-389 (1979)). A total score of 0-6 indicates no depression, 7-19 mild depression, 20-34 moderate depression, 35-59 severe depression, and 60+ very severe depressive symptoms (Müller, M. J., J. Affect. Disord. 77, 255-260 (2003)).

[1] = 1-mo. post, only participants meeting relevant MINI diagnostic criteria
[2] = 1-mo. post, only participants with mild TBI
[3] = 1-wk. post, only participants meeting relevant MINI diagnostic criteria
[4] = 1-wk. post, only participants with mild TBI

SMILES: CCC1CC2CC3c4[nH]c5ccc(OC)cc5c4CCN(C2)C13 (stereo not drawn) [ibogaine, Ibogaine]
- MADRS % Reduction vs Baseline [1]: 81% ± 21%
- MADRS Remission Rate [1]: 67%
- MADRS Response Rate [1]: 93%
- MADRS score (1-mo. post, only participants meeting relevant MINI diagnostic criteria at baseline (N 15), baseline 31.3 ± 6.5): 6.4
- MADRS % Reduction vs Baseline [2]: 87% ± 17%
- MADRS Remission Rate [2]: 85%
- MADRS Response Rate [2]: 96%
- MADRS score (1-mo. post, only participants with mild TBI (N 28), baseline 25.2 ± 8.7): 3.6
- Suicidal Ideation (MADRS Q10), % Reporting (1-mo. post): 14%
- MADRS score (1-wk post, only participants meeting relevant MINI diagnostic criteria at baseline (N 15), baseline 31.3 ± 6.5): 3.6
- Suicidal Ideation (MADRS Q10), % Reporting (1-wk post): 0%
- MADRS % Reduction vs Baseline [3]: 89% ± 11%
- MADRS Remission Rate [3]: 73%
- MADRS Response Rate [3]: 100%
- MADRS % Reduction vs Baseline [4]: 87% ± 24%
- MADRS Remission Rate [4]: 85%
- MADRS Response Rate [4]: 100%
- MADRS score (1-wk. post, only participants with mild TBI (N 28), baseline 25.2 ± 8.7): 2.7
- subjects meeting criteria for remission with a MADRS score of less than 7 (FIG. 4B): 82%
- subjects meeting criteria for response, reduction of more than 50% in MADRS symptom severity (FIG. 4B): 96%
- MADRS, effect size D (baseline vs 1-mo. post, only participants meeting relevant MINI diagnostic criteria (N 15)): 3.15
- MADRS, effect size D (baseline vs 1-mo. post, only participants with mild TBI (N 28)): 2.70
- MADRS, effect size D (baseline vs 1-wk post, only participants with mild TBI (N 28)): 2.55
- MADRS, effect size D (baseline vs 1-wk. post, only participants meeting relevant MINI diagnostic criteria (N 15)): 4.11
- MADRS, effect size D (baseline vs one-month post, all participants): 2.80
- MADRS, effect size D (baseline vs one-week post, all participants): 2.65
- MADRS Remission Rate (one-month post, 29 participants, remission = score <8): 83%
- MADRS Response Rate (one-month post, 29 participants, response = reduction of at least 50%): 97%
- MADRS score (one-month post, all participants, baseline 25.6 ± 8.7, mean ± SD): 3.8
- MADRS % Reduction vs Baseline (one-month post, all participants, mean ± SD): 87% ± 17%
- MADRS Remission Rate (one-week post, 29 participants, remission = score <8): 83%
- MADRS Response Rate (one-week post, 29 participants, response = reduction of at least 50%): 100%
- MADRS % Reduction vs Baseline (one-week post, all participants, mean ± SD): 87% ± 23%
